Data: patent publication US20250263439A1, “HETERODIMERIC PEPTIDE REAGENTS AND METHODS” (REGENTS OF THE UNIVERSITY OF MICHIGAN, priority 2018, published 2025)
“And” between values parts separate entries of the source, which are not always exact repeats. Equal entries are not always repeated.

What was measured:
[1] = tested on: SKBr3 cells; assay: Confocal microscopy binding of Cy5.5-labeled heterodimer linker configurations to SKBr3 cells; assay type: cell-based, human; settings: linkers E2, Hex, E3, E6, E10
Description: The two monomers were combined in a heterodimer configuration using a variable linker designed with either a PEG spacer that ranged in size from 17-74 atoms or a hydrophobic 6-aminohexonic acid linker in the α-, ξ-amino groups of the second lysine. The linker length was varied to determine the optimal spacing between monomers to maximize binding to the intended targets. Using confocal microscopy, binding for each Cy5.5-labeled heterodimer configuration to human breast cancer cells SKBr3 that overexpress both EGFR and ErbB2 was evaluated, FIG. 1B.
Hydrophilicity was good as well. Western blot analysis was used to show relative EGFR and ErbB2 expression levels, FIG. 1D. Western blot was performed by lysing cells in Pierce® RIPA lysis buffer containing Halt™ protease inhibitor cocktail (#87786, Thermo Scientific) for 30 min on ice. The lysates were centrifuged at 10,000 rpm for 10 min at 4° C. A BSA protein assay kit (#23227, Thermo Scientific) was used to quantify protein concentration in the supernatant. Aliquots of protein (10 μL) were used for electrophoresis on NuPAGE™ 4-12% Bis-Tris gels (#17031471, Invitrogen) followed by electrophoretic transfer onto membranes (#ISEQ00010, Merck Millipore Ltd). […]

[2] = tested on: OE33 human esophageal adenocarcinoma cells; assay: Confocal microscopy binding of heterodimer versus monomers to OE33 cells; assay type: cell-based
[3] = tested on: SKBr3 cells; assay: Heterodimer internalization in SKBr3 cells over time (confocal); assay type: cell-based, human
Procedure: Using confocal microscopy, images were collected over time to evaluate heterodimer internalization. […] Binding by anti-EGFR-AF568 (yellow) and anti-ErbB2-AF488 (green) to the surface (arrows) of the same cells is shown for comparison. On the merged images, a Pearson's correlation coefficient was measured for the heterodimer with the anti-EGFR antibody (ρ=0.77) and the anti-ErbB2 (ρ=0.65) antibody. […] The DAPI images highlight the location of cell nuclei prior to heterodimer incubation, FIG. 3B. Binding of QRH*-KSP*-E3-Cy5.5 (red) to the cell surface is seen at […]. The heterodimer starts to internalize at 4 min, and complete internalization is seen at 40 min.

[4] = tested on: EGFR and ErbB2 mediated signaling; assay: Effect on downstream cell signaling in SKBr3 cells (Western blot); assay type: cell-based, human; settings: heterodimer at 1, 5, and 20 μM
Procedure: The effect of heterodimer binding on downstream signaling was evaluated in SKBr3 cells. SKBr3 cells were seeded in 6-well flat-bottom plates. […] EGF (#E9644, Sigma) was reconstituted to 1 mg/mL using 10 mM acetic acid, diluted with 0.1% BSA, and added to SKBr3 cells at a concentration of 100 ng/mL. Lapatinib (CDS022971, Sigma) was diluted to 100 nM in DMSO and PBS from 1 mg/mL stock solution, and was added to the cells incubated with heterodimer at concentrations of 1, 5, and 20 μM in separate wells.

[5] = tested on: OE33 xenograft tumors; assay: In vivo NIR fluorescence imaging of OE33 xenograft tumors (Cy5.5); parameters: species or system nude mice
Procedure: (§1) Optical imaging was performed in nude mice bearing xenograft tumors in vivo to characterize pharmacokinetics and assess toxicity. All experimental procedures were performed in accordance with relevant guidelines and regulations of the University of Michigan, and all animal studies were conducted with approval by the University Committee on the Use and Care of Animals (UCUCA). Animals were housed per guidelines of the Unit for Laboratory Animal Medicine (ULAM).
Female athymic nude mice (002019 Foxn1, Jackson Laboratories) were obtained at 4-5 weeks of age, and were housed with four animals per cage and fed with sterilized pellet chow and water. Mice were anesthetized in an isoflurane chamber, and OE33 xenograft tumors were generated by subcutaneous injection of about 5×10^7 tumor cells suspended in […] of sterile PBS in the hind limb flank. Mice were studied at about 3-4 weeks post-inoculation when the tumor volume reached about 0.5-0.8 cm in size.
In vivo fluorescence images were collected using the Xenogen IVIS™ 200 small animal imaging system. Fluorescence intensities were measured and normalized. […] Images were collected prior to peptide injection to assess baseline auto-fluorescence values and then at various time points post-injection up to 24 hours, FIG. 5A. Fluorescence images were excited at λex=675 nm, and emission was collected at λem=740 nm with 5 sec exposure (f/stop=8).

[6] = tested on: OE33 xenograft tumors; assay: In vivo competition with unlabeled peptide monomers; parameters: species or system mice; settings: two hours after heterodimer injection
Procedure: In vivo heterodimer specificity was assessed by competition with 3000 μM of unlabeled peptide monomer or a mixture of two monomers diluted in 50 μL of PBS injected 20 min beforehand in tumor-bearing mice (n=4 per group). Blocking studies were carried out by injecting unlabeled QRH*, KSP*, and both monomers together to validate in vivo specificity. Images were collected at two hours after heterodimer injection when peak uptake was expected. The ratio of fluorescence intensity in tumor was calculated using regions of interest (ROI), and the results were presented as mean±standard deviation (SD).

[7] = Acute toxicity, histology (H&E) of major organs; assay type: in vivo, mice; settings: brain, heart, kidney, liver, spleen and lung; after day 15
Procedure: as §1

In the case of “heterodimer of QRHKPRE (SEQ ID NO: 1) and KSPNPRF (SEQ ID NO: 2) with E3 (triethyleneglycol) linker, Cy5.5 label [QRH*-KSP*-E3-Cy5.5]”, the “mean signal among heterodimer linker configurations” value [1] is reported as “largest signal”, the “greater fluorescence intensity compared with either monomer alone” value [2] is reported as 3 fold and the “time at which heterodimer starts to internalize” value [3] is reported as 4 min and 8 to 20 min. For the same substance, the “time of complete internalization / strong signal inside cells” value [3] was 40 min, the “phosphorylation of EGFR (p-EGFR) and ErbB2 (p-ErbB2)” value [4] was “no change” and the “phosphorylation of downstream AKT (p-AKT) and ERK (p-ERK)” value [4] was “no downstream change”. For the same substance, the “peak mean tumor signal versus control peptide” value ([5]; about 2 hours after intravenous injection, n=6) was “significantly greater”, the “time of return of signal to baseline / systemic clearance” value ([5]; intravenous, OE33 xenograft) was “about 24 hours” and the “tumor signal after prior injection of unlabeled QRH*, KSP*, or both” value [6] was “reduction of signal”. The “acute toxicity on histology (H&E)” value [7] was “no sign of acute toxicity”.
